pIC50: −log10 of the molar value.
Target: T1, c-Met kinase (recombinant c-Met) (Homo sapiens, UniProt P08581)
T1 construct: 0.27 nM recombinant c-Met
Test: In vitro kinase assay I (homogeneous time-resolved fluorescence tyrosine kinase assay)
Type: biochemical
Outline: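 Biotinylated peptide (0.5 μM) phosphorylated by 0.2 nM recombinant c-Met with 50 μM MgATP, 60 min at room temperature, pH 7.4, 5% DMSO. EDTA stop; HTRF read with Eu-anti-phosphotyrosine antibody and streptavidin-APC. IC50 from 4-parameter logistic fit.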

T1 sequence (P08581 25-1390): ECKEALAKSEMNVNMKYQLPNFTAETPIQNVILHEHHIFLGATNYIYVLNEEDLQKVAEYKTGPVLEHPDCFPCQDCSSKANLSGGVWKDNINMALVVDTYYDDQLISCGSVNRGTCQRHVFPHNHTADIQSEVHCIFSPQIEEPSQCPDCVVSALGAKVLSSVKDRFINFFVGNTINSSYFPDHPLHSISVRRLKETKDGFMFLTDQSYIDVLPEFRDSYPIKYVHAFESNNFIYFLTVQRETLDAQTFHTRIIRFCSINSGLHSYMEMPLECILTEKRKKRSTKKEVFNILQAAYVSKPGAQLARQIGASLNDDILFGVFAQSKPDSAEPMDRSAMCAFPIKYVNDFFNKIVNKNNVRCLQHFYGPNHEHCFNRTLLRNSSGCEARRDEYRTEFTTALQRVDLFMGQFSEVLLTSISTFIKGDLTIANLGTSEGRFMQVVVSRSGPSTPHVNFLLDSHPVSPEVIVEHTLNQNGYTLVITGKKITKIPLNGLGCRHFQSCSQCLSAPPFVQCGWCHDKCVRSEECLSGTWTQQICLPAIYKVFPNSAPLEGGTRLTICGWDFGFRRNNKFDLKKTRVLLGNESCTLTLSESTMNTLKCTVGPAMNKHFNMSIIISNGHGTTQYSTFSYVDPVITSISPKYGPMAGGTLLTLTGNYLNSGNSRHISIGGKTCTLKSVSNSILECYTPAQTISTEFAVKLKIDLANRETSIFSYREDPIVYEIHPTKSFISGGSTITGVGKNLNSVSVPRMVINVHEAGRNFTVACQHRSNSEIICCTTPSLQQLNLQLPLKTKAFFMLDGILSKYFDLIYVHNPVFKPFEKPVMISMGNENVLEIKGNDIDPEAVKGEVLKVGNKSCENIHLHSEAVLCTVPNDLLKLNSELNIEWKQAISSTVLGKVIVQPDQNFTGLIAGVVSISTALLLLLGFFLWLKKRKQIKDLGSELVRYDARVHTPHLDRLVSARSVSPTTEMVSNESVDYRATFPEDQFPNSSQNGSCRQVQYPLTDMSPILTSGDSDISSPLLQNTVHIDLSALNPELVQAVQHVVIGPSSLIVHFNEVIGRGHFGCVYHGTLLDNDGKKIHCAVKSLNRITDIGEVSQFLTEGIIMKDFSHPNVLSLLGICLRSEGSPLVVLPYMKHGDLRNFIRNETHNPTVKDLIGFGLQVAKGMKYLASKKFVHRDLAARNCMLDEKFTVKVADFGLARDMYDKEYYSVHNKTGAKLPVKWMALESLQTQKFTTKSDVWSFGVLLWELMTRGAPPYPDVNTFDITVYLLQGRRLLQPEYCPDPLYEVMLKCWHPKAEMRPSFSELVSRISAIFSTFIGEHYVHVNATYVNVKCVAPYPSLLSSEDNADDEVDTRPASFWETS

Structure (SMILES)	pIC50
Cn1cc(-n2ccc(=O)c(Cc3cccc(-c4ncn(CCC#N)n4)c3)n2)cn1 [Example 709, 3-[3-(3-{[1-(1-methyl-1H-pyrazol-4-yl)-4-oxo-1,4-dihydropyridazin-3-yl]methyl}phenyl)-1H-1,2,4-triazol-1-yl]propanenitrile]	6.00 to 7.00
CN(C)C(=O)CCn1cnc(-c2cccc(Cc3nn(-c4cnn(C)c4)ccc3=O)c2)n1 [Example 710, N,N-dimethyl-3-[3-(3-{[1-(1-methyl-1H-pyrazol-4-yl)-4-oxo-1,4-dihydropyridazin-3-yl]methyl}phenyl)-1H-1,2,4-triazol-1-yl]propanamide]	6.00 to 7.00
Cn1cc(-n2ccc(=O)c(Cc3cccc(-c4ncn(CC(F)(F)CN5CCOCC5)n4)c3)n2)cn1 [Example 712, 3-{3-[1-(2,2-difluoro-3-morpholin-4-ylpropyl)-1H-1,2,4-triazol-3-yl]benzyl}-1-(1-methyl-1H-pyrazol-4-yl)pyridazin-4(1H)-one]	> 7.00
Cn1cc(-n2ccc(=O)c(Cc3cccc(-c4ncn(CC5(C)COC5)n4)c3)n2)cn1 [Example 713, 3-(3-{1-[(3-methyloxetan-3-yl)methyl]-1H-1,2,4-triazol-3-yl}benzyl)-1-(1-methyl-1H-pyrazol-4-yl)pyridazin 4(1H)-one]	6.00 to 7.00
Cn1cc(-n2ccc(=O)c(Cc3cccc(-c4ncn(CCS(C)(=O)=O)n4)c3)n2)cn1 [Example 714, 1-(1-methyl-1H-pyrazol-4-yl)-3-(3-{1-[2-(methylsulfonyl)ethyl]-1H-1,2,4-triazol-3-yl}benzyl)pyridazin-4(1H)-one]	6.00 to 7.00
Cn1cc(-n2ccc(=O)c(Cc3cccc(-c4ncn(CCc5ccccc5)n4)c3)n2)cn1 [Example 715, 1-(1-methyl-1H-pyrazol-4-yl)-3-{3-[1-(2-phenylethyl)-1H-1,2,4-triazol-3-yl]benzyl}pyridazin-4(1H)-one]	6.00 to 7.00
CCOCCn1cnc(-c2cccc(Cc3nn(-c4cnn(C)c4)ccc3=O)c2)n1 [Example 716, 3-{3-[1-(2-ethoxyethyl)-1H-1,2,4-triazol-3-yl]benzyl}-1-(1-methyl-1H-pyrazol-4-yl)pyridazin 4(1H)-one]	6.00 to 7.00
Cn1cc(-n2ccc(=O)c(Cc3cccc(-c4ncn(CCN5CCCC5=O)n4)c3)n2)cn1 [Example 718]	6.00 to 7.00
COC(C)(C)Cn1cnc(-c2cccc(Cc3nn(-c4cnn(C)c4)ccc3=O)c2)n1 [Example 719, 3-{3-[1-(2-methoxy-2-methylpropyl)-1H-1,2,4-triazol-3-yl]benzyl}-1-(1-methyl-1H-pyrazol-4-yl)pyridazin-4(1H)-one]	> 7.00
Cn1cc(-n2ccc(=O)c(Cc3cccc(-c4ncn(CCCC5OCC(C)(C)CO5)n4)c3)n2)cn1 [Example 720, 3-(3-{1-[3-(5,5-dimethyl-1,3-dioxan-2-yl)propyl]-1H-1,2,4-triazol-3-yl}benzyl)-1-(1-methyl-1H-pyrazol-4-yl)pyridazin-4(1H)-one]	> 7.00
CCOc1cnc(-c2cccc(Cc3nn(-c4ccc(C(=O)NCCO)c(F)c4)ccc3=O)c2)nc1 [Example 722, 4-{3-[3-(5-Ethoxypyrimidin-2-yl)benzyl]-4-oxopyridazin-1(4H)-yl}-2-fluoro-N-(2-hydroxyethyl)benzamide]	> 7.00
CCOc1cnc(-c2cccc(Cc3nn(-c4ccc(C(=O)NC)c(F)c4)ccc3=O)c2)nc1 [Example 723]	> 7.00
CCOc1cnc(-c2cccc(Cc3nn(-c4ccc(C(=O)NCC(C)(C)O)c(F)c4)ccc3=O)c2)nc1 [Example 724, 4-{3-[3-(5-ethoxypyrimidin-2-yl)benzyl]-4-oxopyridazin-fluoro-N-(2-1(4H)-yl}-2-hydroxy-2-methylpropyl) benzamide]	> 7.00
CCOc1cnc(-c2cccc(Cc3nn(-c4cccc(F)c4)ccc3=O)c2)nc1 [Example 725, 3-(3-(5-Ethoxypyrimidin-2-yl)benzyl)-1-(3-fluorophenyl)pyridazin-4(1H)-one]	> 7.00
CCOc1cnc(-c2cccc(Cc3nn(-c4cccc(C(=O)N(C)C)c4)ccc3=O)c2)nc1 [Example 726, 3-{3-[3-(5-Ethoxypyrimidin-2-yl)benzyl]-4-oxopyridazin-1(4H)-yl}-N,N-dimethylbenzamide]	6.00 to 7.00
CC(C)COC(=O)Nc1cccc(Cc2nn(-c3ccc(-c4cccnc4)cc3)ccc2=O)c1 [Example 727, 2-Methylpropyl[3-({4-oxo-1-[4-(pyridin-3-yl)phenyl]-1,4-dihydropyridazin-3-yl}methyl)phenyl]carbamate]	> 7.00
CC(C)COC(=O)Nc1cccc(Cc2nn(-c3ccc(-c4ccncc4)cc3)ccc2=O)c1 [Example 728, 2-methylpropyl (3-({4-oxo-1-(4-(pyridin-4-yl)phenyl)-1,4-dihydropyridazin-3-yl}methyl}phenyl) carbamate]	> 7.00
CC(C)COC(=O)Nc1cccc(Cc2nn(-c3cccc(-c4cnn(C)c4)c3)ccc2=O)c1 [Example 729, 2-methylpropyl [3-({1-[3-(1-methyl-1H-pyrazol-4-yl)phenyl]-4-oxo-1,4-dihydropyridazin-3-yl}methyl)phenyl] carbamate]	6.00 to 7.00

Structure (SMILES)	pIC50
CC(C)COC(=O)Nc1cccc(Cc2nn(-c3cccc(-c4ccncc4)c3)ccc2=O)c1 [Example 730, 2-methylpropyl (3-{[4-oxo-1-(3-pyridin-4-ylphenyl)-1,4-dihydropyridazin-3-yl]methyl}phenyl) carbarnate]	6.00 to 7.00
CC(C)COC(=O)Nc1cccc(Cc2nn(-c3ccc(-c4cn[nH]c4)cc3)ccc2=O)c1 [Example 731, 2-methylpropyl [3-({4-oxo-1-[4-(1H-pyrazol-4-yl)phenyl]-1,4-dihydropyridazin-3-yl}methyl)phenyl] carbamate]	> 7.00
CC(C)COC(=O)Nc1cccc(Cc2nn(-c3ccc(-c4cnn(C)c4)cc3)ccc2=O)c1 [Example 732, 2-methylpropyl [3-({1-[4-(1-methyl-1H-pyrazol-4-yl)phenyl]-4-oxo-1,4-dihydropyridazin-3-yl}methyl)phenyl] carbamate]	6.00 to 7.00
COc1cnc(-c2cccc(Cc3nn(-c4cncc(C#N)c4)ccc3=O)c2)nc1 [Example 733, 5-{3-[3-(5-Methoxypyrimidin-2-yl)benzyl]-4-oxopyridazin-1(4h)-yl}pyridine-3-carbonitrile]	> 7.00
CCn1cnc(-c2cccc(Cc3nn(-c4cccc(C(N)=O)c4)ccc3=O)c2)n1 [Example 734, 3-{3-[3-(1-Ethyl-1H-1,2,4-triazol-3-yl)benzyl]-4-oxopyridazin-1(4H)-yl}benzamide]	> 7.00
CCCn1cnc(-c2cccc(Cc3nn(-c4cccc(C(N)=O)c4)ccc3=O)c2)n1 [Example 735, 3-{4-oxo-3-[3-(1-propyl-1H-1,2,4-triazol-3-yl)benzyl]pyridazin-1(4H)-yl}benzamide]	6.00 to 7.00
CCOc1cnc(-c2cccc(Cc3nn(-c4cccc(C(N)=O)c4)ccc3=O)c2)nc1 [Example 736, 3-[3-[3-(5-ethoxypyrimidin-2-yl)benzyl]-4-oxopyridazin-1(4H)-yl]benzamide]	> 7.00
COCCOC(=O)Nc1cccc(Cc2nn(-c3cc(F)cc(C(N)=O)c3)ccc2=O)c1 [Example 737, 2-methoxyethyl [3-({1-[3-(aminocarbonyl)-5-fluorophenyl]-4-oxo-1,4-dihydropyridazin-3-yl}methyl)phenyl] carbamate]	> 7.00
CCc1nc(-c2cccc(Cc3nn(-c4cnn(C)c4)ccc3=O)c2)no1 [Example 739, 3-[3-(5-Ethyl-1,2,4-oxadiazole-3-yl)benzyl]-1-(1-methyl-1H-pyrazol-4-yl)pyridazin-4(1H)-one]	> 7.00
CCCc1nc(-c2cccc(Cc3nn(-c4cnn(C)c4)ccc3=O)c2)no1 [Example 740, 1-(1-methyl-1H-pyrazol-4-yl)-3-[3-(5-propyl-1,2,4-oxadiazol-3-yl)benzyl]pyridazin-4(1H)-one]	> 7.00
CCCCc1nc(-c2cccc(Cc3nn(-c4cnn(C)c4)ccc3=O)c2)no1 [Example 741, 3-[3-(5-butyl-1,2,4-oxadiazol-3-yl)benzyl]-1-(1-methyl-1H-pyrazol-4-yl)pyridazin 4(1H)-one]	6.00 to 7.00
CC(C)Cc1nc(-c2cccc(Cc3nn(-c4cnn(C)c4)ccc3=O)c2)no1 [Example 742, 3-{3-[5-(2-methylpropyl)-1,2,4-oxadiazol-3-yl]benzyl}-1-(1-methyl-1H-pyrazol-4-yl)pyridazin-4(1H)-one]	6.00 to 7.00
Cn1cc(-n2ccc(=O)c(Cc3cccc(-c4noc(CN5CCOCC5)n4)c3)n2)cn1 [Example 743, 1-(1-methyl-1H-pyrazol-4-yl)-3{3-[5-(morpholin-4-ylmethyl)-1,2,4-oxadiazol-3-yl]benzyl}pyridazin-4(1H)-one]	6.00 to 7.00
COCCc1nc(-c2cccc(Cc3nn(-c4cnn(C)c4)ccc3=O)c2)no1 [Example 744, 3-{3-[5-(2-methoxyethyl)-1,2,4-oxadiazol-3-yl]benzyl}-1-(1-methyl-1H-pyrazol-4-yl)pyridazin-4(1H)-one]	6.00 to 7.00
Cn1cc(-n2ccc(=O)c(Cc3cccc(-c4noc(CC5COC5)n4)c3)n2)cn1 [Example 745, 1-(1-methyl-1H-pyrazol-4-yl)-3-{3-[5-(oxetan-3-ylmethyl)-1,2,4-oxadiazol-3-yl]benzyl}pyridazin-4(1H)-one]	6.00 to 7.00
Cn1cc(-n2ccc(=O)c(Cc3cccc(-c4noc(CC5CCOCC5)n4)c3)n2)cn1 [Example 746]	6.00 to 7.00
Cn1cc(-n2ccc(=O)c(Cc3cccc(-c4ncc(O[C@H]5CC[C@H](O)CC5)cn4)c3)n2)cn1 [Example 747, 3-(3-{5-[(trans-4-hydroxycyclohexyl)oxy]pyrimidin-2-yl}benzyl)-1-(1-methyl-1H-pyrazol-4-yl)pyridazin-4(1H)-one]	> 7.00
Cn1cc(-n2ccc(=O)c(Cc3cccc(-c4ncc(O[C@H]5CC[C@@H](O)CC5)cn4)c3)n2)cn1 [Example 748, 3-(3-{5-[(cis-4-hydroxycyclohexyl)oxy]pyrimidin-2-yl}benzyl)-1-(1-methyl-1H-pyrazol-4-yl)pyridazin-4(1H)-one]	> 7.00

Reference: patent US20120264735A1 (priority 2009, published 2012)
